The source made the active and inactive calls. The calls are words filed in the database; no cut-off is given here.
How the values were obtained:
P388 [1] = experiment: Optimal i.p. dose in P388 (murine leukemia) inoculated mice.; assay type: functional
P388 [2] = experiment: Increase in mean survival of P388 (murine leukemia) inoculated mice following optimal dose.; assay type: functional, organism-based; settings: Mus musculus
P388 [3] = experiment: Increase in mean survival of P388 (murine leukemia) inoculated mice; no effect.; assay type: functional; settings: Mus musculus
P388 [4] = experiment: In vitro inhibition of P388 (murine leukemia) cell growth.; assay type: functional, cell-based, Mus musculus
P388 [5] = experiment: In vitro inhibition of Pt resistant P388 (murine leukemia) cell growth.; assay type: functional, cell-based, Mus musculus

Molecule	IC50 (P388 [4]; Mus musculus, P388) [µM]	IC50 (P388 [5]; Mus musculus, P388) [µM]	ILS (P388 [3])	OD (P388 [1]) [mg/kg]	also measured
9-[4-(5-Amino-4-aminomethyl-pentyl)-phenylamino]-5-methoxy-acridine-4-carboxylic acid (2-dimethylamino-ethyl)-amide (2HCl) [listing 1 of 2 here]	–	–	–	–	OD (P388 [1]; Mus musculus): 45 mg/kg; ILS (P388 [2]): 28%
2-{3-[4-(Acridin-9-ylamino)-phenyl]-propyl}-propane-1,3-diammino-dichloroplatinum (II) (HCl) [listing 1 of 2 here]	–	–	inactive	–	OD (P388 [1]; Mus musculus): 20 mg/kg
DICHLORO(ETHYLENEDIAMINE) PLATINUM (II) [listing 1 of 2 here]	–	–	–	–	OD (P388 [1]; Mus musculus): 13.3 mg/kg; ILS (P388 [2]): 70%
2-{3-[4-(Acridin-9-ylamino)-phenyl]-propyl}-propane-1,3-diammino-dichloroplatinum (II) (HCl) [listing 2 of 2 here]	–	–	–	–	IC50 (P388 [4]; p388): 2.9 µM; IC50 (P388 [5]; p388): 1.9 µM
Dichloro(1,3-propanediamine)platinum (II) [listing 1 of 2 here]	–	–	–	–	IC50 (P388 [4]; p388): 0.12 µM; IC50 (P388 [5]; p388): 0.38 µM
2-{4-[4-(Acridin-9-ylamino)-phenyl]-butyl}-propane-1,3-diammino-dichloroplatinum (II) (HCl) [listing 1 of 2 here]	–	–	inactive	–	OD (P388 [1]; Mus musculus): 30 mg/kg
DICHLORO(ETHYLENEDIAMINE) PLATINUM (II) [listing 2 of 2 here]	–	–	–	–	IC50 (P388 [4]; p388): 0.3 µM; IC50 (P388 [5]; p388): 1.03 µM
NCC(CN)Cc1ccc(Nc2c3ccccc3nc3ccccc23)cc1	7.2	0.7	inactive	45	–
CISPLATIN [listing 1 of 2 here]	–	–	–	–	IC50 (P388 [4]; p388): 1.2 µM; IC50 (P388 [5]; p388): 5.5 µM
Dichloro(1,3-propanediamine)platinum (II) [listing 2 of 2 here]	–	–	–	–	OD (P388 [1]; Mus musculus): 8.9 mg/kg; ILS (P388 [2]): 31%
N,1-{2-[4-(Acridin-9-ylamino)-phenyl]-ethyl}-ethane-1,2-diammino-dichloroplatinum (II) [listing 1 of 2 here]	–	–	inactive	–	OD (P388 [1]; Mus musculus): 13.3 mg/kg
9-[4-(5-Amino-4-aminomethyl-pentyl)-phenylamino]-5-methoxy-acridine-4-carboxylic acid (2-dimethylamino-ethyl)-amide (2HCl) [listing 2 of 2 here]	–	–	–	–	IC50 (P388 [4]; p388): 1.6 µM; IC50 (P388 [5]; p388): 1 µM
CISPLATIN [listing 2 of 2 here]	–	–	–	–	OD (P388 [1]; Mus musculus): 5.3 mg/kg; ILS (P388 [2]): 120%
N,1-{2-[4-(Acridin-9-ylamino)-phenyl]-ethyl}-ethane-1,2-diammino-dichloroplatinum (II) [listing 2 of 2 here]	–	–	–	–	IC50 (P388 [4]; p388): 2.9 µM; IC50 (P388 [5]; p388): 2.4 µM
2-{4-[4-(Acridin-9-ylamino)-phenyl]-butyl}-propane-1,3-diammino-dichloroplatinum (II) (HCl) [listing 2 of 2 here]	–	–	–	–	IC50 (P388 [4]; p388): 7.2 µM; IC50 (P388 [5]; p388): 0.9 µM
NCC(CN)CCCc1ccc(Nc2c3ccccc3nc3ccccc23)cc1	0.12	0.12	inactive	30	–
COc1cccc2c(Nc3ccc(CCCC(CN)CN)cc3)c3cccc(C(=O)NCCN(C)C)c3nc12	–	–	inactive	30	–

Continued, in another order:

IC50 (P388 [4]; Mus musculus, P388) [µM]	IC50 (P388 [5]; Mus musculus, P388) [µM]	Molecule	ILS (P388 [3])	OD (P388 [1]) [mg/kg]	also measured
3.7	0.7	NCCNCCCc1ccc(Nc2c3ccccc3nc3ccccc23)cc1	inactive	20	–
0.31	0.63	NCC(CN)CCc1ccc(Nc2c3ccccc3nc3ccccc23)cc1	inactive	30	–
7.3	3	NCCNCCCCCc1ccc(Nc2c3ccccc3nc3ccccc23)cc1	inactive	20	–
12.5	45	NCCNCCc1ccc(Nc2c3ccccc3nc3ccccc23)cc1	inactive	45	–
0.72	0.69	NCC(CN)CCCCCc1ccc(Nc2c3ccccc3nc3ccccc23)cc1	inactive	13.3	–
0.72	0.68	NCC(CN)CCCCc1ccc(Nc2c3ccccc3nc3ccccc23)cc1	inactive	20	–
7.8	1.3	NCCNCCCCc1ccc(Nc2c3ccccc3nc3ccccc23)cc1	inactive	65	–

From ChEMBL document CHEMBL1125006, “DNA-directed alkylating agents. 2. Synthesis and biological activity of platinum complexes linked to 9-anilinoacridine” (J Med Chem, 1990)
